Source: patent US20220288223A1, “ACTIVATABLE SPECIFIC BINDING MEMBER COMPLEXES, AND METHODS OF MAKING AND USING SAME” (The Regents of the University of California, priority 2019, published 2022)

Legend:
EGFR = EGFR (Homo sapiens, UniProt P00533); assay: EGFR binding curve of PA-cetuximab with and without thrombin (FIG. 4)
[1] = system: head and neck cancer cell line (Cal-27); assay: Immunohistocytochemistry, HRP-dependent DAB staining (FIG. 4); assay type: cell-based
Thrombin = Thrombin (Homo sapiens, UniProt P00734); assay: Gel electrophoresis of PA-cetuximab after thrombin treatment (FIG. 5); assay type: biochemical; details: thrombin activation
Excerpt: Protease cleavage of blocked PA-cetuximab causes size change as CDR blocking domains is proteolytically released from cetuximab panibody. Lane 1 is a protein marker.

[2] = system: orthotopic Cal-27 xenograft tumors; assay: In vivo ratiometric fluorescence imaging of RACPPs in orthotopic tongue tumor model; details: mice, orthotopic Cal-27 tongue tumors, IV injection
Excerpt: FIG. 2. In vivo ratiometric fluorescence imaging of RACPPs in orthotopic tongue tumor model (Cal27) for protease selective probes.

## (Acety-QGQSGQCISPRGCPDGPYVMY-PEG6-(Nle-TPRSFL)-PEG24)n-cetuximab [PA-cetuximab]
EGFR; after thrombin treatment, EGFR protein
  EGFR binding: allow binding
EGFR; without thrombin (solid line)
  EGFR binding: blocked
[1]; FIG. 4 panel C, equivalent with no antibody control (E)
  Binding to Cal-27 cells (DAB staining on membranes): blocks binding
[1]; FIG. 4 panel D
  Binding to Cal-27 cells (DAB staining on membranes): binding
[1]; after thrombin treatment
  Binding to cells (Cal-27) that express EGFR: allow binding
Thrombin
  Change in size of inhibited complex on acrylamide gel: size shift

## KLRFSQK [Cy5/Cy7 RACPP, cathepsin cleavable probe]
[2]
  Ratiometric fluorescence labeling of tumor versus adjacent tissue: very selective targeting to cancerous tongue

## PLGC(me)AG
[2]
  Ratiometric fluorescence labeling of tumor versus adjacent tissue: good cleavage in the tumor but also had high signal in adjacent tongue

## TGRAAA
[2]
  Ratiometric fluorescence labeling of tumor versus adjacent tissue: high level localized uptake at the center of the tumor

## YGRAAA
[2]
  Ratiometric fluorescence labeling of tumor versus adjacent tissue: tumor specific labeling at high intensity with very low labeling of adjacent tissue
